Measurements: patent publication US5780642A, “Imidazole derivatives as therapeutic agents” (KNOLL Aktiengesellschaft, priority 1993, dated 1998)
Where a name gives a salt, the structure may show the parent alone.

system: Zymosan Stimulated Macrophages (arachidonic acid release); assay: Test A: Inhibition of Arachidonic Acid Release from Zymosan Stimulated Macrophages; type: cell-based, mouse (female MF1 mice); conditions: Mus musculus, Macrophage, inhibition of arachidonic acid release, zymosan stimulated mouse peritoneal macrophages; tested at 100, 50, 20, 10, 5 and 1 μM; ≤100 μM considered active; read-out: Test A IC50
Description: Test A was carried out in the following way:
Inhibition of Arachidonic Acid Release from Zymosan Stimulated Macrophages
Female MF1 mice (weighing 20 to 25 g) were killed using a rising concentration of CO2. The mice were laid on their backs and the abdomens wiped with 70% alcohol. The skin was pulled back, exposing the peritoneal wall. Medium A (5 ml) (see below) was injected into the peritoneal cavity of each mouse followed by approximately 1 ml of air using a 20 ml syringe and a 21G×40 mm needle in order to form a suspension of macrophage cells. The medium and cells were then removed using a 19G×40 mm needle. The resulting suspension was returned to a sterile beaker kept on ice. The extracts from all the mice were pooled and this pooled cell suspension was counted using a Coulter counter and adjusted to a final cell count of 1-1.3×10^6 cells/ml prior to labelling with [^3 H]-arachidonic acid. Typically five mice provided sufficient cells for each multiwell plate.
Sufficient [^3 H]-arachidonic acid in ethanol to give a final concentration of 1.6 μCi/ml (equivalent to 40 μCi/plate) was blown to dryness under nitrogen. The arachidonic acid was then resuspended in 1 or 2 ml of the cell suspension which was then mixed with the remainder of the cell suspension in a centrifuge bottle. The labelled cell suspension was then plated out into sterile plastic 96 flat-bottomed well plates (250 μl per well) and incubated overnight at 37° C. in a moist atmosphere of 5% CO2, 95% air.
The following day, non-adherent cells were removed by washing 3 times with sterile phosphate buffered saline (PBS). The adherent peritoneal macrophages were then cultured for a further 24 hours in the presence or absence of drugs, in medium B (see below) at 37° in a 5% CO2 atmosphere in order to measure the effects of drugs on the spontaneous release of arachidonic acid in the absence of stimulus. After this incubation, supernatants were removed to give media 1 and stored in sealed multi-well plates at 4° C. prior to scintillation counting. Drugs which potentiated spontaneous release of arachidonic acid (125% of controls) were deemed to be toxic at the concentration at which this phenomenon occurred. The supernatants were replaced by fresh medium C containing fresh drug and a stimulus. Three drugs were tested at six concentrations (100, 50, 20, 10, 5 and 1 μM) in replicates of four on each plate. The other wells contained controls consisting of a positive control (e.g. dexamethasone), medium (B) only and medium C only.
Incubation was then continued for a further 5 hours, whereupon the supernatants were collected to give media 2 and the adherent cells washed with PBS. The cells were then lysed with 100 μl of 0.1% TRITON® X100 in a 0.1% solution of bovine serum albumin in 0.9% saline and mechanically disrupted to give cell lysates. These supernatants (media 2) and cell lysates (Cells) were also stored in sealed multi-well plates at 4° C. prior to scintillation counting. 200 μl aliquots of media, or 100 μl aliquots of cells were counted using 2 ml of OPTIPHASE "HIGH SAFE" (Trademark of LKB) as scintillant.
The percentage of arachidonic acid released was calculated using the mean values for each group of 4 wells in the following equation. [formula]
The value for the arachidonic acid release in the absence of stimulus (spontaneous, cpm of media 2) from cells which had been exposed to neither stimulus nor drug was subtracted from all equivalent values (cpm media 2, stimulated with or without drug) to give the net stimulated release. The percentage inhibition of arachidonic acid release caused by a drug may then be calculated using the following equation. [formula]
Compounds of formula I were tested at six concentrations (100, 50, 20, 10, 5 and 1 μM) and IC50 values calculated. Compounds with IC50 values≤100 μM are considered to be active. Advantageous compounds have an IC50 value<50 μM.
Medium A (for peritoneal lavage) […]

SMILES | IC50
CCCOC(=O)c1ccc(C(C)(C)NCC(O)Cn2ccnc2)cc1 (stereo not drawn) [Example 74, propyl 4-{1-[2-hydroxy-3-(imidazol-1-yl)propylamino]-1-methylethyl}benzoate] | 82 µM
CC(C)(COC(=O)c1ccccc1)NCCCn1ccnc1 [Example 78, 2-[3-(imidazol-1-yl)propylamino]-2,2-dimethylethyl benzoate dihydrochloride] | 92 µM
CC(C)(NCCCc1c[nH]cn1)c1ccc(Cl)cc1 [Example 84, N-[1-(4-chlorophenyl)-1-methylethyl]-3-(imidazol-4(5)-yl)propylamine] | 15 µM
CCc1ccc(OCCNCCCn2ccnc2)cc1 [Example 5, N-[2-(4-Ethylphenoxy)ethyl]-3-(imidazol-1-yl)propylamine] | 17 µM
CSc1ccc(OCC(C)(C)NCC(O)Cn2ccnc2)cc1 (stereo not drawn) [Example 51, 3-(Imidazol-1-yl)-1-[2-(4-methylthiophenoxy)-1,1-dimethylethylamino]propan-2-ol] | 87 µM
N#Cc1ccc(OCCNCCCn2ccnc2)cc1 [Example 31, 4-{2-[3-(Imidazol-1-yl)propylamino]ethoxy}benzonitrile sesquihydrochloride] | 74 µM
CCCCCCS(=O)(=O)Cc1ccc(C(C)(C)NCCCn2ccnc2)cc1 [Example 25, N-(1-[4-(Hexylsulphonylmethyl)phenyl]-1-methylethyl)-3-(imidazol-1-yl)propylamine dihydrochloride] | 11 µM
CC(C)(NCC(O)Cn1ccnc1)c1ccc(C(=O)NC2CCCCC2)cc1 (stereo not drawn) [Example 48, N-Cyclohexyl-4-{1-[2-hydroxy-3-(imidazol-1-yl)propylamino]-1-methylethyl}benzamide] | 70 µM
CC(C)(COc1ccc(C(F)(F)F)cc1)NCCCn1ccnc1 [Example 39, N-{2-[4-(Trifluoromethyl)phenoxy]-1,1-dimethylethyl}-3-(imidazol-1-yl)propylamine dimaleate] | 0.2 µM
COC(=O)CN(CCCn1ccnc1)CCOc1ccc(Cl)cc1 [Example 65, methyl N-[2-(4-chlorophenoxy)ethyl]-N-[3-(imidazol-1-yl)propyl]glycinate] | 88 µM
CC(C)(CNCCCn1ccnc1)Sc1ccc(Cl)cc1 [Example 18, 2-(4-Chlorophenylthio)-3'-(imidazol-1-yl)-2-methyldipropylamine dihydrochloride] | 20 µM
CC(C)(COc1ccccc1)NCCCCCn1ccnc1 [Example 75, 5-(imidazol-1-yl)-N-(1,1-dimethyl-2-phenoxyethyl)pentylamine] | 26 µM
CCC(CC)(NCCCn1cnc(CCNC(=O)c2ccc(OC)cc2)c1)c1ccccc1 [Example 61, N-(2-{1-[3-(1-ethyl-1-phenylpropylamino)propyl]-imidazol-4-yl}ethyl)-4-methoxybenzamide] | 9 µM
Cc1nccn1CCCNCCCc1ccc(Cl)cc1 [Example 12, 3-(4-Chlorophenyl)-3'-(2-methylimidazol-1-yl)dipropylamine] | 7 µM
CSc1ccc(OCC(C)(C)NCCCn2ccnc2)cc1 [Example 33, N-[1,1-Dimethyl-2-(4-methylthiophenoxy)ethyl]-3-(imidazol-1-yl)propylamine dihydrochloride hydrate] | 32 µM
Clc1ccc(C2(CCNCCCn3ccnc3)OCCO2)cc1 [Example 32, N-{2-[2-(4-Chlorophenyl)-1,3-dioxolan-2-yl]ethyl}-3-(imidazol-1-yl)propylamine] | 9 µM

same assay, conditions: Mus musculus, Macrophage, read-out: Test A IC50

SMILES | IC50
CC(C)(Cc1ccc(Cl)cc1)NCCCn1ccnc1 [Example 21, N-[2-(4-Chlorophenyl)-1,1-dimethylethyl]-3-(imidazol-1-yl)propylamine dihydrochloride] | 8 µM

same assay, conditions: inhibition of arachidonic acid release, zymosan stimulated mouse peritoneal macrophages; tested at 100, 50, 20, 10, 5 and 1 μM; ≤100 μM considered active; read-out: Test A IC50

SMILES | IC50
CC(C)(NCC(O)Cn1ccnc1)c1ccc(Cl)cc1 (single isomer, unassigned; (-)) [Example 46, (-)-1-[1-(4-Chlorophenyl)-1-methylethylamino]-3-(imidazol-1-yl)propan-2-ol] | 80 µM
